Test results taken from the supplement of paper PMC11061612.

Experiments:
[1] = tested on: BFTC-905 (Bladder Carcinoma); assay: Bliss excess, mean over the matrix (fraction); higher = more synergy
Summary of the method: (§1)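 After 24 hours at 37°C and 5% CO2 in 1536-well plates, cells in DMEM/F12 or RPMI plus 10% FBS received two-drug dose matrices for 72 hours. Viability came from CellTiter-Glo 2.0 luminescence and was scaled as inhibition, anchored at 0 by vehicle wells and at 1 by blank wells. Combination Emax is taken as the second-highest inhibition in the matrix, and Bliss excess as the observed combination effect less EA + EB − EA·EB, with EA and EB the single-agent effects.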

[2] = tested on: BL-41 (Burkitt's Lymphoma); assay: as above
Summary of the method: as §1

[3] = tested on: CAMA-1 (Breast Carcinoma); assay: as above
Summary of the method: as §1

[4] = tested on: DND-41 (T-Lymphoblastic Leukemia); assay: as above
Summary of the method: as §1

[5] = tested on: ES1 (Ewing's Sarcoma); assay: as above
Summary of the method: as §1

[6] = tested on: ES8 (Ewing's Sarcoma); assay: as above
Summary of the method: as §1

[7] = tested on: GR-ST (B-Lymphoblastic Leukemia); assay: as above
Summary of the method: as §1

[8] = tested on: K-562 (Chronic Myelogenous Leukemia); assay: as above
Summary of the method: as §1

[9] = tested on: L-540 (Hodgkin's Lymphoma); assay: as above
Summary of the method: as §1

[10] = tested on: MKN28 (Gastric Carcinoma); assay: as above
Summary of the method: as §1

[11] = tested on: NCI-H1792 (Lung Adenocarcinoma); assay: as above
Summary of the method: as §1

[12] = tested on: NCI-H2818 (Mesothelioma); assay: as above
Summary of the method: as §1

[13] = tested on: SR (Other Blood Carcinomas); assay: as above
Summary of the method: as §1

[14] = tested on: SW1417 (Colorectal Carcinoma); assay: as above
Summary of the method: as §1

[15] = tested on: SW837 (Colorectal Carcinoma); assay: as above
Summary of the method: as §1

[16] = tested on: WIL2-NS (Non-Cancerous); assay: as above
Summary of the method: as §1

[17] = tested on: WM-115 (Melanoma); assay: as above
Summary of the method: as §1

[18] = tested on: BFTC-905 (Bladder Carcinoma); assay: combination Emax (second highest fraction inhibited in the dose matrix, 72 h); higher = more inhibition; extreme values may be limits of the assay
Summary of the method: as §1

[19] = tested on: BL-41 (Burkitt's Lymphoma); assay: as above
Summary of the method: as §1

[20] = tested on: CAMA-1 (Breast Carcinoma); assay: as above
Summary of the method: as §1

[21] = tested on: DND-41 (T-Lymphoblastic Leukemia); assay: as above
Summary of the method: as §1

[22] = tested on: ES1 (Ewing's Sarcoma); assay: as above
Summary of the method: as §1

[23] = tested on: ES8 (Ewing's Sarcoma); assay: as above
Summary of the method: as §1

[24] = tested on: GR-ST (B-Lymphoblastic Leukemia); assay: as above
Summary of the method: as §1

[25] = tested on: K-562 (Chronic Myelogenous Leukemia); assay: as above
Summary of the method: as §1

[26] = tested on: L-540 (Hodgkin's Lymphoma); assay: as above
Summary of the method: as §1

[27] = tested on: MKN28 (Gastric Carcinoma); assay: as above
Summary of the method: as §1

[28] = tested on: NCI-H1792 (Lung Adenocarcinoma); assay: as above
Summary of the method: as §1

[29] = tested on: NCI-H2818 (Mesothelioma); assay: as above
Summary of the method: as §1

[30] = tested on: SR (Other Blood Carcinomas); assay: as above
Summary of the method: as §1

[31] = tested on: SW1417 (Colorectal Carcinoma); assay: as above
Summary of the method: as §1

[32] = tested on: SW837 (Colorectal Carcinoma); assay: as above
Summary of the method: as §1

[33] = tested on: WIL2-NS (Non-Cancerous); assay: as above
Summary of the method: as §1

[34] = tested on: WM-115 (Melanoma); assay: as above
Summary of the method: as §1
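Wherever Bliss excess, mean over the matrix is given: after 72 h of two-drug dosing.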

Row | SMILES | Bliss excess [1] | Bliss excess [2] | Bliss excess [3] | Bliss excess [4] | Bliss excess [5] | Bliss excess [6] | Bliss excess [7] | Bliss excess [8] | Bliss excess [9] | Bliss excess [10] | Bliss excess [11] | Bliss excess [12] | Bliss excess [13] | Bliss excess [14] | Bliss excess [15] | Bliss excess [16] | Bliss excess [17] | combination Emax [18] | combination Emax [19] | combination Emax [20] | combination Emax [21] | combination Emax [22] | combination Emax [23] | combination Emax [24] | combination Emax [25] | combination Emax [26] | combination Emax [27] | combination Emax [28] | combination Emax [29] | combination Emax [30] | combination Emax [31] | combination Emax [32] | combination Emax [33] | combination Emax [34]
1 | Cc1nc(-c2cn3c(n2)-c2ccc(-c4cnn(C(C)(C)C(N)=O)c4)cc2OCC3)n(C(C)C)n1 [Taselisib] + O=C(Nc1ccc2[nH]nc(-c3ccncc3)c2c1)[C@@H]1CCN(CC(=O)N2CCN(c3ccc(-c4ncccn4)cc3)CC2)C1 [SCH772984] (first compound max 10 µM, 7x7, partner max 5 µM) | 0.172 | 0.0266 | 0.0216 | 0.14 | 0.0604 | 0.117 | -0.0418 | 0.0488 | 0.0023 | 0.0966 | 0.0818 | 0.0096 | 0.177 | 0.0781 | 0.0556 | 0.106 | 0.0394 | 0.999 | 0.263 | 0.563 | 0.611 | 0.77 | 0.84 | 0.706 | 0.53 | 0.474 | 0.451 | 0.966 | 0.372 | 0.681 | 0.756 | 0.747 | 0.728 | 0.951
2 | C[C@@H](Nc1cc(F)cc(F)c1)c1cc(C(=O)N(C)C)cc2c(=O)cc(N3CCOCC3)oc12 [AZD8186] + CC(=O)c1c(C)c2cnc(Nc3ccc(N4CCNCC4)cn3)nc2n(C2CCCC2)c1=O [Palbociclib] (first compound max 10 µM, 7x7, partner max 10 µM) | 0.0553 | -0.0114 | 0.0447 | 0.0875 | 0.074 | 0.0321 | 0.0215 | 0.0479 | 0.0275 | -0.0287 | 0.0608 | 0.044 | 0.0382 | 0.0187 | -0.0454 | -0.0251 | 0.0109 | 0.55 | 0.245 | 0.738 | 0.504 | 0.722 | 0.676 | 0.725 | 0.196 | 0.267 | 0.227 | 0.577 | 0.389 | 0.839 | 0.395 | 0.213 | 0.771 | 0.58
3 | CN(CCO)CC[C@H](CSc1ccccc1)Nc1ccc(S(=O)(=O)NC(=O)c2ccc(N3CCC([C@@H](O)c4ccccc4-c4ccc(Cl)cc4)CC3)cc2)cc1S(=O)(=O)C(F)(F)F [AZD4320] + CS(=O)(=O)CCNCc1ccc(-c2ccc3ncnc(Nc4ccc(OCc5cccc(F)c5)c(Cl)c4)c3c2)o1 [Lapatinib] (first compound max 1 µM, 7x7, partner max 10 µM) | 0.034 | -0.0006 | 0.0048 | 0.0603 | -0.0147 | 0.121 | -0.0086 | -0.03 | 0.137 | -0.0128 | -0.0553 | -0.0332 | 0.0765 | 0.0238 | 0.0547 | -0.0018 | 0.0604 | 0.529 | 0.97 | 0.36 | 1 | 0.923 | 0.956 | 0.961 | 0.552 | 0.905 | 0.693 | 0.546 | 0.407 | 0.777 | 0.934 | 0.942 | 0.258 | 0.909
4 | O=C(c1cc(Cc2n[nH]c(=O)c3ccccc23)ccc1F)N1CCN(C(=O)C2CC2)CC1 [Olaparib] + CN(CC[C@H](CSC1=CC=CC=C1)NC2=C(C=C(C=C2)S(=O)(=O)NC(=O)C3=CC=C(C=C3)N4CCC(CC4)[C@H](C5=CC=CC=C5C6=CC=C(C=C6)Cl)O)S(=O)(=O)C(F)(F)F)CCO [AZD4320] (first compound max 10 µM, 7x7, partner max 1 µM) | -0.0089 | 0.0193 | -0.0317 | -0.0067 | 0.0333 | 0.0463 | 0.0012 | -0.0155 | -0.0017 | -0.0269 | -0.0399 | -0.0504 | 0.146 | -0.0183 | -0.053 | 0.0107 | -0.0631 | 0.346 | 0.417 | 0.278 | 1 | 0.918 | 0.982 | 0.462 | 0.253 | 0.618 | 0.147 | 0.154 | 0.186 | 0.709 | 0.651 | 0.197 | 0.509 | 0.37
5 | C[C@@H]1COCCN1c1cc(C2([S@](C)(=N)=O)CC2)nc(-c2ccnc3[nH]ccc23)n1 [AZD6738] + Nc1ccn([C@@H]2O[C@H](CO)[C@@H](O)C2(F)F)c(=O)n1 [Gemcitabine] (first compound max 10 µM, 7x7, partner max 0.3 µM) | 0.0387 | -0.0007 | 0.0878 | 0.0586 | 0.0203 | 0.0265 | 0.0085 | 0.0537 | -0.0107 | 0.0907 | 0.0362 | 0.0515 | 0.0532 | 0.0802 | 0.065 | 0.0093 | 0.0268 | 0.915 | 1 | 0.587 | 0.921 | 1 | 1 | 0.889 | 0.916 | 0.963 | 0.664 | 0.951 | 0.545 | 1 | 0.77 | 0.779 | 0.985 | 0.659
6 | C=CCn1c(=O)c2cnc(Nc3ccc(N4CCN(C)CC4)cc3)nc2n1-c1cccc(C(C)(C)O)n1 [AZD1775] + CCc1c2c(nc3ccc(O)cc13)-c1cc3c(c(=O)n1C2)COC(=O)[C@]3(O)CC [SN-38] (first compound max 1 µM, partner max 0.3 µM) | -0.0133 | -0.0252 | 0.0473 | -0.0446 | -0.0144 | -0.0145 | -0.0824 | 0.0873 | -0.0458 | 0.0317 | -0.0124 | -0.063 | 0.0049 | -0.0298 | -0.0222 | -0.0755 | -0.0252 | 0.946 | 1 | 0.466 | 0.983 | 1 | 1 | 0.825 | 0.953 | 0.953 | 0.689 | 0.755 | 0.399 | 1 | 0.793 | 0.703 | 0.961 | 0.416
7 | N#Cc1cnc(Nc2cc(NC[C@H]3CNCCO3)c(C(F)(F)F)cn2)cn1 [SRA737] + C=CCn1c(=O)c2cnc(Nc3ccc(N4CCN(C)CC4)cc3)nc2n1-c1cccc(C(C)(C)O)n1 [AZD1775] (first compound max 10 µM, partner max 1 µM) | 0.0526 | 0.0924 | 0.0672 | 0.104 | 0.118 | 0.144 | 0.0215 | 0.0463 | 0.0404 | 0.0204 | 0.0434 | -0.0129 | 0.029 | 0.0127 | 0.0157 | 0.102 | -0.0524 | 0.777 | 1 | 0.442 | 0.949 | 0.993 | 0.884 | 0.864 | 0.967 | 0.921 | 0.504 | 0.864 | 0.299 | 1 | 0.537 | 0.725 | 0.968 | 0.356
8 | N#Cc1cnc(Nc2cc(NC[C@H]3CNCCO3)c(C(F)(F)F)cn2)cn1 [SRA737] + CCc1c2c(nc3ccc(O)cc13)-c1cc3c(c(=O)n1C2)COC(=O)[C@]3(O)CC [SN-38] (first compound max 10 µM, 7x7, partner max 0.3 µM) | -0.028 | -0.0272 | 0.0081 | -0.0573 | -0.0145 | 0.0054 | -0.102 | 0.138 | -0.0403 | 0.04 |  | -0.0605 | -0.0069 | 0.019 | 0.0267 | -0.0262 | -0.0968 | 0.912 | 1 | 0.393 | 0.974 | 1 | 1 | 0.836 | 0.977 | 0.938 | 0.552 | 0.889 | 0.337 | 1 | 0.803 | 0.805 | 0.982 | 0.421
